Measurements: patent US20240041911A1, “USE OF CLADRIBINE FOR TREATING IMMUNE BRAIN DISEASE” (CHORD THERAPEUTICS SA, priority 2020, published 2024)

What was measured:
[1] = Treatment of a person suffering from autoimmune-mediated limbic encephalitis (single-patient case, anti-NMDAR encephalitis)
[2] = multiple sclerosis patients; cited from earlier work

In the case of `O=C1NC(=O)C(c2ccccc2)(c2ccccc2)N1` [phenytoin], the “response of generalized tonic-clonic repetitive seizures to anticonvulsants” value (“response” below) ([1]; before cladribine) is reported as “did not respond”.
In the case of `Nc1nc(Cl)nc2c1ncn2[C@H]1C[C@H](O)[C@@H](CO)O1` [cladribine, 2-chloro-2′-deoxyadenosine], the “time at which therapeutic effect on MS is evident” value [2] is given as “three months after treatment”, the “period of beneficial effects on the disease without need for frequent retreatment” value ([1]; after a relatively short period of treatment) is given as “over 10 months to two years” and the “disability reported by patient” value ([1]; after recovery following cladribine, able to perform all usual activities) is given as “no significant disability”. The recurrence of disease ([1]; follow up of 2 years, 5 more maintenance courses (20 mg over 2 consecutive days) with 2 months intervals) was “did not show any recurrence of disease”, the neurological condition ([1]; over subsequent 4 weeks after the first 3 weeks following cladribine) was “returned to normal neurological condition” and the “onset of effect on severe symptoms” value ([1]; patient with refractory autoimmune encephalitis) was “rapid effect”. For the same compound, the neurological sequel ([1]; remaining after recovery following cladribine) was “parasomnia and complete loss of memory covering the entire hospitalization period”.
For `CCCC(CCC)C(=O)[O-].[Na+]` [sodium valproate], the “response” value ([1]; before cladribine) was “did not respond”.
In the case of `O=C(CCCN1CCC(O)(c2ccc(Cl)cc2)CC1)c1ccc(F)cc1` [haloperidol], the “psychiatric condition under standard antipsychotic treatment” value ([1]; during entire stay in the psychiatric ward, before cladribine) is reported as “without any improvement”.
In the case of `NC(=O)N1c2ccccc2C=Cc2ccccc21` [carbamazepine], the “response” value ([1]; before cladribine) is reported as “did not respond”.
With `O=C1CN=C(c2ccccc2Cl)c2cc([N+](=O)[O-])ccc2N1` [clonazepam] the “response” value ([1]; before cladribine) was “did not respond”.
